Columns and labels:
[1] = test system: carrageenan-induced edema; conditions: in vivo; cited from earlier work
[2] = test system: uterus; experiment: Wet weights of uteri of ovariectomized rats; assay type: in vivo, SD rats; conditions: OVX rats, 11 weeks
Description: OVX group and the intervention groups: The rats were anesthetized by intraperitoneal injection of 1% pentobarbital sodium at 5 ml/kg. After the onset of anesthesia, the rats were positioned face-down and dehaired at the third lumbar vertebra below the costal arch. The skin was sanitized by benzalkonium bromide and incised by about 1 cm. The subcutaneous tissue and the fascia were incised, and the muscle was bluntly separated. The peritoneum was carefully cut open. White fat was lifted carefully by using tissue forceps inserted to the abdominal cavity through the incision. The fat was gently turned over to expose the quincuncial ovary, which was then ligated by sterile 1 silk thread. The ovary was separated by cutting the oviduct by ophthalmic scissors. After hemostasis by compression, the fat was returned into the abdominal cavity. Subsequently, an incision was made on the opposite side and the same procedures were carried out to excise the ovary on the opposite side. The peritoneum, the fascia, the subcutaneous tissue, and the skin were sutured one by one. The incisions were sanitized.
The vehicle was 1% sodium carboxymethylcellulose (CMC-Na). The sham group and OVX group were administered the vehicle by gavage.
Intervention groups were administered the following formulations of active agents dissolved in the vehicle: […]
The rats were sacrificed by cervical dislocation after 11 weeks. Uteri were removed, weighted, and fixed in 4% paraformaldehyde (PFA). The whole right knee joints were removed and fixed in 4% PFA.
The rats were weighted, and then sacrificed. The uteri were removed from the rats and determined for wet weights.
Statistical analysis of variance was performed. The variance of the wet weights internal to the SHAM group was high, possibly attributing to different stages of menstrual cycle. In all groups, the body weights before the treatment were not statistically different from those after the treatment. The wet weights of uteri obtained from the ovariectomized groups were statistically different from those obtained from the SHAM group (p<0.01), indicating a successful ovariectomy.

[3] = Body weights of rats before and after the treatments; assay type: in vivo, SD rats; conditions: OVX rats, after treatment (11 weeks)
Description: OVX group and the intervention groups: The rats were anesthetized by intraperitoneal injection of 1% pentobarbital sodium at 5 ml/kg. After the onset of anesthesia, the rats were positioned face-down and dehaired at the third lumbar vertebra below the costal arch. The skin was sanitized by benzalkonium bromide and incised by about 1 cm. The subcutaneous tissue and the fascia were incised, and the muscle was bluntly separated. The peritoneum was carefully cut open. White fat was lifted carefully by using tissue forceps inserted to the abdominal cavity through the incision. The fat was gently turned over to expose the quincuncial ovary, which was then ligated by sterile 1 silk thread. The ovary was separated by cutting the oviduct by ophthalmic scissors. After hemostasis by compression, the fat was returned into the abdominal cavity. Subsequently, an incision was made on the opposite side and the same procedures were carried out to excise the ovary on the opposite side. The peritoneum, the fascia, the subcutaneous tissue, and the skin were sutured one by one. The incisions were sanitized. The rats were raised in the clean SPF animal chamber in the Animal Experimental Center of the Shanghai Institutes for Biological Sciences, CAS, with temperature maintained at 24° C., humidity maintained at 40˜60%, and a diurnal rhythm of 12 h/12 h. The rats were supplied with normal food and purified water ad libitum. The vehicle was 1% sodium carboxymethylcellulose (CMC-Na). The sham group and OVX group were administered the vehicle by gavage. Intervention groups were administered the following formulations of active agents dissolved in the vehicle: The rats were sacrificed by cervical dislocation after 11 weeks. Uteri were removed, weighted, and fixed in 4% paraformaldehyde (PFA). The whole right knee joints were removed and fixed in 4% PFA. The rats were weighted, and then sacrificed. The uteri were removed from the rats and determined for wet weights.

[4] = test system: CTX-II; experiment: Determination of the urinary CTX-II content (competitive ELISA, creatinine corrected); assay type: in vivo, SD rats; conditions: OVX rats, urine at 3, 5, 7 weeks, FIG. 2, vs. model group
Description: Urine samples (1˜1.5 ml) were collected in eppendorf tubes from the rats before modeling and at 3 weeks, 5 weeks and 7 weeks by using metabolic cages, and stored at −20° C.
1. The concentrations of CTX-II in the urine samples obtained in accordance with example 1 were determined by the Urine Pre-clinical (PC) Cartilaps ELISA kit and the competitive enzyme linked immunosorbent assay (ELISA). The concentration of creatinine (referred to as “Crea” hereinafter) in the urine samples were determined by the multifunctional biochemistry analyzer (Beckman coulter, DXC800). The CTX-II contents were corrected by the following formula:
Corrected CTX-II ([…])=CTX-II (μg/L)/Crea (mmol/L) […]
12) The optical densities (ODs) were determined by a microplate reader (Molecular Devices Corporation, BD03315) at 450 nm and 650 nm, and a 4-parameter logistic regression curve was thereby obtained, so as to read the concentration of each sample.
4. Determination of Crea in the urine samples (mmol/L): The Crea concentration is determined by using a multiple biochemistry analyzer (Beckman coulter, DXC800) by the Lab Department of Shanghai Ruij in Hospital.
The CTX-II baseline ratios were calculated as the above formula, and the results were shown in FIG. 2, wherein ** indicates p<0.01 vs. the model group at the same time point, and * indicates p<0.05 vs. the model group at the same time point.

[5] = test system: croton oil-induced ear edema; conditions: in vivo; cited from earlier work

## O=c1c(-c2ccc(O[C@@H]3O[C@H](CO)[C@@H](O)[C@H](O)[C@H]3O)cc2)coc2cc(O)cc(O)c12 [HDA, 3-[4-(β-D-glucopyranosyl)-benzyl]5,7-dihydro-4H-1-benzopyran-4-one (4′,5,7-trihydroxylisoflavone-4′-D-glucoside)]
[1]
  carrageenan-induced edema: inhibit
[2]; sophoricoside 10 mg/kg/day
  Wet weight of uterus: 0.143 ± 0.008 g
[2]; sophoricoside 20 mg/kg/day
  Wet weight of uterus: 0.129 ± 0.008 g
[2]; sophoricoside 40 mg/kg/day
  Wet weight of uterus: 0.162 ± 0.013 g
[2]; sophoricoside 80 mg/kg/day
  Wet weight of uterus: 0.166 ± 0.017 g
[3]; sophoricoside 10 mg/kg/day
  Final body weight: 370.9 ± 5.7 g
[3]; sophoricoside 20 mg/kg/day
  Final body weight: 376.2 ± 6.5 g
[3]; sophoricoside 40 mg/kg/day
  Final body weight: 372.5 ± 6.8 g
[3]; sophoricoside 80 mg/kg/day
  Final body weight: 362.8 ± 3.4 g
[4]; sophoricoside 40 mg/kg/day
  metabolic peak of urinary CTX-II (ratio to baseline) shortly after ovariectomy: also have this effect, but in a weaker manner
[4]; sophoricoside 80 mg/kg/day
  metabolic peak of urinary CTX-II (ratio to baseline) shortly after ovariectomy: significantly suppress the metabolic peak of CTX-II shortly after ovariectomy
[5]
  croton oil-induced ear edema: inhibit

From patent publication US20110130355A1, “USE OF SOPHORICOSIDE IN THE MANUFACTURE OF MEDICAMENTS” (priority 2008, published 2011)
